In patent US20080004271A1, “Inhibitors of TNFalpha, PDE4 and B-RAF, compositions thereof and methods of use therewith” (priority 2006, published 2008):

Experiments:
V600E mutant B-RAF = biological target: T1, V600E mutant B-RAF (Homo sapiens, UniProt P15056, V600E); experiment: V600E Mutant B-RAF 33P Assay; type: biochemical
T1 construct: purchased Upstate
Description: Substrate (HIS-MEK1 K97M) is prepared by Celgene Corp. as described above.
Test compound is diluted in 100% DMSO (600 μM). […] Substrate mixture is prepared as 7.5 μM HIS-MEK1 K97M in assay buffer. ATP mixture is prepared as 300 μM ATP, 75 mM MgCl2, 0.05 μCi/μl ^33P ATP in assay buffer.
In a 96 well assay plate (Falcon Polylpropylene well U-bottom), the following are added to each well: 2.5 μl of test compound solution (serial dilutions), 20 μl of substrate mixture and 17.5 μl of enzyme mixture. The plate is incubated for at least 15 minutes. 10 μl of ATP mixture is added and the plate is incubated at room temperature for about 60 minutes. 80 μl of 12.5% TCA is added to each well, and the plate is incubated for at least 20 minutes. The contents of the plate is transferred to a glass fiber filter plate (Millipore) using a Packard Harvester (washing 10× with 1×PBS). 50 μl of Scintillation-20 fluid is added to each well. The plate is read using a Packard TopCount.

pMEK1/2 in A375 cells = experiment: A375 pMEK1/2 Meso Scale Assay; type: cell-based; conditions: Homo sapiens, A-375, 2 h; A375 pMEK1/2, about two hours incubation
Description: On the afternoon of Day 1, cells are plated in a 96-well flat bottom cell culture plate at about 50,000 cells/well in a volume of 100 μl. On the morning of Day 2, serial dilutions of test compound(s) are added to the plate. The plate is incubated for about two hours at 37° C., […]. The plate is blocked about five minutes before the compound incubation step is completed by adding 150 μl/well of MSD (Meso Scale Discovery) blocking solution-A (prepared with 20 ml 1× Tris wash buffer (25 ml of 10× Tris buffer+225 ml deionized water) and 600 mg MSD blocker A) and incubating with vigorous shaking at room temperature for one hour. The plate is washed 4× with 1× Tris wash buffer.
Cells are harvested and lysates prepared by removing medium, washing 1× with ice-cold PBS (calcium and magnesium free), adding 50 μl/well Complete Tris buffer and incubating with shaking at 4° C. for one hour. Lysate samples (25 μl) are added to an MSD Multi-Spot plate and incubated with vigorous shaking at room temperature for two hours. The plate is washed 1× with Tris wash buffer.
25 μl/well of […] detection antibody (Anti-pMEK1/2 antibody; SULFO-TAG labeled, light sensitive) in 3 ml of cold antibody dilution buffer (1 ml blocking solution-A, 1.82 ml 1× Tris wash buffer, 150 μl 2% MSD blocker D-M and 30 μl 10% MSD blocker D-R) is added and the plate is incubated with vigorous shaking at room temperature in the dark for one hour. The plate is washed 1× with Tris wash buffer.
150 μl/well of 1× MSD Read buffer T (with surfactant) is added to the plate and the plate is read using a MSD Sector instrument.

A375 cells = experiment: Alamar Blue Viability Assay; type: cell-based; conditions: Homo sapiens, A-375, 72 h, 3 days
Description: A375 cells (ATCC # CRL-1619; Passage 4˜15; doubling time is roughly 18 hours) are used. Culture medium is DMEM (high glucose, with L-glutamine)+10% FBS+Pen/Strep. Cells are passed every three days at 1:20.
200 μl of medium only is added into all wells along the edges of a 96-well flat bottom plate and 180 μl of cell suspension (containing 1,000 cells) per well is added into the plate with a Low Evaporation Lid (Costar Cat # 3595). The cells are cultured overnight. Compounds and controls are diluted according to standard compound dilution protocol described below. From 30 mM stock solution, 10 mM, 3 mM, 1 mM, and 0.3 mM solutions in 100% DMSO are prepared using the following serial dilution protocol:
The 30, 10, 3, 1 and 0.3 mM solutions are diluted 1:50 (DMSO:medium) by adding 4 μl of each to 196 μl of culture medium. This yields 600 μM, 200 μM, 60 μM, 20 μM, and 6 μM secondary stock solutions. 4 μl of DMSO are added to 196 μl medium for the DMSO control as well. 20 μl of compound dilutions, including the DMSO control locations (Row G, Columns 2-10 are DMSO control wells), are added in triplicate to the cells in the 96-well plate using a repeat pipettor (see plate layout below). This yields final concentrations of 60 μM, 20 μM, 6 μM, 2 μM, and 0.6 μM containing 0.2% DMSO in each well. The plate is gently tapped to evenly distribute compound within the well. The plate is incubated at 5% CO2 at 37° C. for 3 days.
20 μl of Alamar Blue (Biosource #DAL-1100) is added to each well. The plate is incubated in 5% CO2 incubator for 4 hours. Fluorescence is measured with excitation wavelength at 530 nm and emission wavelength at 590 nm using a Victor 2 multilabel plate reader (Perkin Elmer). Data is saved with plate format as a Text file and entered into ActivityBase (Cell-based SAR; Prolif-Alamar; MTT 5 plates unfixed fit) to calculate the percent of DMSO values for each compound set of triplicate wells and IC50 curves are plotted.

T1 sequence (P15056 whole entry V600E): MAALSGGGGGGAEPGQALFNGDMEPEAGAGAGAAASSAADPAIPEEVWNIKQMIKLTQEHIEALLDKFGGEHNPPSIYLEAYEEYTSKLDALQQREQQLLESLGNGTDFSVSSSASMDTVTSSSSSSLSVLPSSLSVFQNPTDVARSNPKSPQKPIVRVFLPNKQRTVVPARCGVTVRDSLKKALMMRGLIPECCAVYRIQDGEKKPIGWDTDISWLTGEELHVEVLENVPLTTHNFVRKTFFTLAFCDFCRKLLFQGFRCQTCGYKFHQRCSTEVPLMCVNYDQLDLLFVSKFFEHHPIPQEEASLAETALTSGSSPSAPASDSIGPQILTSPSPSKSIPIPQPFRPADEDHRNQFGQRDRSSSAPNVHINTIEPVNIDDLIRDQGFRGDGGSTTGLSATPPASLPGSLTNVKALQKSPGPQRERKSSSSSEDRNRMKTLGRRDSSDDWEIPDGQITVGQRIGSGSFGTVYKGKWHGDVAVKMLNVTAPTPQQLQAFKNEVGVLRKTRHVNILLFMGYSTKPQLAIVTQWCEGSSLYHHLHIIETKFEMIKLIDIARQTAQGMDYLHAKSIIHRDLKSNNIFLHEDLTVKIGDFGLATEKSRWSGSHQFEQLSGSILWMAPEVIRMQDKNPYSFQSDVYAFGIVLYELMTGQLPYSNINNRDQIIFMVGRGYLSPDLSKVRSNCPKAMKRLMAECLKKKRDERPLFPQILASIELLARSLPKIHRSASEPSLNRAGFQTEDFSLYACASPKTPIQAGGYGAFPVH

Row | Compound | IC50 (V600E mutant B-RAF) | IC50 (pMEK1/2 in A375 cells) | IC50 (A375 cells)
1 | NC(=O)c1sc2nc(NC3CC3)nc(-c3ccc(Cl)cc3)c2c1N [Example 5] | 0.1 to 10 µM | 0.1 to 10 µM | 10 to 20 µM
2 | NC(=O)c1sc2nc(NC3CC3)nc(-c3ccc4c(c3)OCC4)c2c1N [Example 162] | 0.1 to 10 µM | 0.1 to 10 µM | 10 to 20 µM
3 | C[C@H](CO)Cc1nc(-c2ccc(Cl)c(Cl)c2)c2c(N)c(C(N)=O)sc2n1 [Example 163] |  | 10 to 20 µM | 30 to 60 µM
4 | C[C@@H](CO)Cc1nc(-c2ccc(Cl)c(Cl)c2)c2c(N)c(C(N)=O)sc2n1 [Example 164] |  | 10 to 20 µM | 20 to 30 µM
5 | COc1cncc(-c2nc(NC3CC3)nc3sc(C(N)=O)c(N)c23)c1 [Example 165] |  | 0.1 to 10 µM | 0.1 to 10 µM
6 | NC(=O)c1sc2nc(NC3CC3)nc(-c3ccc(Cl)nc3)c2c1N [Example 169] | 0.1 to 10 µM | 0.1 to 10 µM | 20 to 30 µM
7 | NC(=O)c1sc2nc(NC3CC3)nc(-c3cncc(Cl)c3)c2c1N [Example 171] | 0.1 to 10 µM | 0.1 to 10 µM | 20 to 30 µM
8 | CCOc1cncc(-c2nc(NC(C)(C)CO)nc3sc(C(N)=O)c(N)c23)c1 [Example 172] | 30 to 60 µM | > 60 µM | > 60 µM
9 | COc1cncc(-c2nc(NC(C)(C)CO)nc3sc(C(N)=O)c(N)c23)c1 [Example 173] |  | 0.1 to 10 µM | 0.1 to 10 µM
10 | CC[C@H](CO)Nc1nc(-c2cncc(OC)c2)c2c(N)c(C(N)=O)sc2n1 [Example 174] | 0.1 to 10 µM | 0.1 to 10 µM | 0.1 to 10 µM
11 | CC[C@@H](CO)Nc1nc(-c2cncc(OC)c2)c2c(N)c(C(N)=O)sc2n1 [Example 175] | 0.1 to 10 µM | 0.1 to 10 µM | 10 to 20 µM
12 | COc1cncc(-c2nc(N[C@H](C)CO)nc3sc(C(N)=O)c(N)c23)c1 [Example 176] |  | 0.1 to 10 µM | 0.1 to 10 µM
13 | NC(=O)c1sc2nc(N)nc(-c3cccc(O)c3)c2c1N [Example 185] | 0.1 to 10 µM | 0.1 to 10 µM | 0.1 to 10 µM
14 | Cc1ccc(-c2nc(NC3CC3)nc3sc(C(N)=O)c(N)c23)cc1C [Example 188] | 0.1 to 10 µM | 0.1 to 10 µM | 10 to 20 µM
15 | NC(=O)c1sc2nc(C3CC3)nc(-c3ccc(Cl)c(Cl)c3)c2c1N [Example 189] | 0.1 to 10 µM | 20 to 30 µM | 0.1 to 10 µM
16 | CC(C)(CO)Nc1nc(-c2cc(O)cc(Cl)c2)c2c(N)c(C(N)=O)sc2n1 [Example 190] |  | 0.1 to 10 µM | 0.1 to 10 µM
17 | CC[C@@H](CO)Nc1nc(-c2cc(O)cc(Cl)c2)c2c(N)c(C(N)=O)sc2n1 [Example 191] | 0.1 to 10 µM | 0.1 to 10 µM | 0.1 to 10 µM
18 | CC[C@H](CO)Nc1nc(-c2cc(O)cc(Cl)c2)c2c(N)c(C(N)=O)sc2n1 [Example 192] | 0.1 to 10 µM | 0.1 to 10 µM | 0.1 to 10 µM

Row | Compound | IC50 (V600E mutant B-RAF) | IC50 (pMEK1/2 in A375 cells) | IC50 (A375 cells)
19 | C[C@@H](CO)Nc1nc(-c2ccc(Cl)c(Cl)c2)c2c(N)c(C(N)=O)sc2n1 [Example 200] |  | 0.1 to 10 µM | 10 to 20 µM
20 | C[C@H](CO)Nc1nc(-c2ccc(Cl)c(Cl)c2)c2c(N)c(C(N)=O)sc2n1 [Example 201] |  | 0.1 to 10 µM | 10 to 20 µM
21 | NC(=O)CCNc1nc(-c2ccc(Cl)c(Cl)c2)c2c(N)c(C(N)=O)sc2n1 [Example 202] | 0.1 to 10 µM | 20 to 30 µM | 10 to 20 µM
22 | CC(C)(CO)Nc1nc(-c2ccc(Cl)c(Cl)c2)c2c(N)c(C(N)=O)sc2n1 [Example 203] |  | 0.1 to 10 µM | 10 to 20 µM
23 | NC(=O)c1sc2nc(NC(CO)CO)nc(-c3ccc(Cl)c(Cl)c3)c2c1N [Example 204] | 0.1 to 10 µM | 10 to 20 µM | 20 to 30 µM
24 | C[C@H](O)CNc1nc(-c2ccc(Cl)c(Cl)c2)c2c(N)c(C(N)=O)sc2n1 [Example 205] | 0.1 to 10 µM | 20 to 30 µM | 20 to 30 µM
25 | C[C@@H](O)CNc1nc(-c2ccc(Cl)c(Cl)c2)c2c(N)c(C(N)=O)sc2n1 [Example 206] | 0.1 to 10 µM | 20 to 30 µM | 20 to 30 µM
26 | C[C@H](CO)Oc1nc(-c2ccc(Cl)c(Cl)c2)c2c(N)c(C(N)=O)sc2n1 [Example 212] |  | 0.1 to 10 µM | 10 to 20 µM
27 | NC(=O)c1sc2nc(NC3CC3)nc(-c3cccc(O)c3F)c2c1N [Example 232] |  | 0.1 to 10 µM | 0.1 to 10 µM
28 | CC(C)c1nc(-c2ccc(Cl)c(Cl)c2)c2c(N)c(C(N)=O)sc2n1 [Example 238] | 0.1 to 10 µM | 10 to 20 µM | 
29 | NC(=O)c1sc2nc(NC3CC3)nc(-c3cccc(NC(=O)Nc4ccccc4)c3)c2c1N [Example 248] |  | 10 to 20 µM | 10 to 20 µM
30 | NC(=O)c1sc2nc(NC3CC3)nc(-c3cccc(NC(=O)Nc4ccc(C(F)(F)F)cc4)c3)c2c1N [Example 250] |  | 0.1 to 10 µM | 0.1 to 10 µM
31 | Cc1ccc(NC(=O)Nc2cccc(-c3nc(NC4CC4)nc4sc(C(N)=O)c(N)c34)c2)cc1 [Example 251] |  | 0.1 to 10 µM | 0.1 to 10 µM
32 | CC(C)(CO)Nc1nc(-c2cccc(NC(=O)Nc3ccc(C(F)(F)F)cc3)c2)c2c(N)c(C(N)=O)sc2n1 [Example 257] |  | 0.1 to 10 µM | 0.1 to 10 µM
33 | NC(=O)c1sc2ncnc(-c3cccc(NC(=O)Nc4ccc(C(F)(F)F)cc4)c3)c2c1N [Example 262] |  | 0.1 to 10 µM | 0.1 to 10 µM
34 | NC(=O)c1sc2ncnc(-c3ccc(Cl)c(Cl)c3)c2c1N [Example 269] |  | > 60 µM | > 60 µM
35 | NC(=O)c1sc2ncnc(-c3cccc(NC(=O)Nc4cccnc4)c3)c2c1N [Example 293] | 0.1 to 10 µM |  | 10 to 20 µM
